Results taken from patent US10894784B2, “Heteroarylbenzimidazole compounds” (BAYER PHARMA AKTIENGESELLSCHAFT, priority 2015, dated 2021).
Like-named read-outs stand apart in the source and are kept apart here.

Molecular target: TBK1 (Homo sapiens (Human), UniProt Q9UHD2)
Experiment: TBK1 low ATP kinase assay (in vitro assay 1)
Assay type: biochemical
[1] = in vitro assay 1, read-out: TBK1 low ATP kinase assay IC50

Chain of TBK1 (Q9UHD2 whole entry): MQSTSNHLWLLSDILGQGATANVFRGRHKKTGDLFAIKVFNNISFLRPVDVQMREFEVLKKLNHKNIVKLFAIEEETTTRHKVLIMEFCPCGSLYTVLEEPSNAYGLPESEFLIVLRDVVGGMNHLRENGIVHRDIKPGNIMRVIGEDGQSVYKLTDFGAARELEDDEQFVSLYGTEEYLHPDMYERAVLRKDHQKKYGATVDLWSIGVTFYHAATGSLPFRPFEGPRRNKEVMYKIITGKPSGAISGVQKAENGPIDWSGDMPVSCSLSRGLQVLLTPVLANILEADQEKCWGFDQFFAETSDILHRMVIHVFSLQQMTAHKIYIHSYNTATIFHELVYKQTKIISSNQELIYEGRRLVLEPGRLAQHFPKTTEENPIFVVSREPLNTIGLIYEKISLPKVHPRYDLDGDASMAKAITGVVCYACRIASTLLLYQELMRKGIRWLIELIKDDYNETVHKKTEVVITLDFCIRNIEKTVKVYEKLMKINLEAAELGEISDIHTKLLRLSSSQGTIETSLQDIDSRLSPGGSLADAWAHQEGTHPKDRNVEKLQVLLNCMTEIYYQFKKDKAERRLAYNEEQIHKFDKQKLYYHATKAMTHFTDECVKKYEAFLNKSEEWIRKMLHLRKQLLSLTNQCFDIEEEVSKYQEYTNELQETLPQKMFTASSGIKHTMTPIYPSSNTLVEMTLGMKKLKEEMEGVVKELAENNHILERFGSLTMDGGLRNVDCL

Compound	IC50 [1] [nM]	IC50 (TBK1 low ATP kinase assay IC50, in vitro assay 1) [nM]
Cc1nc(-c2ccc3nc(Nc4cc(CN5CCN(C(=O)CC(F)(F)F)CC5)ccn4)[nH]c3c2)c2ccsc2n1 [Example 104.01, 3,3,3-trifluoro-1-{4-[(2-{[6-(2-methylthieno[2,3-d]pyrimidin-4-yl)-1H-benzimidazol-2-yl]amino}pyridin-4-yl)methyl]piperazin-1-yl}propan-1-one]	2600	–
COc1cc(-c2ccc3nc(Nc4cc(CN5CCN(C(=O)C6CCC6)CC5)ccn4)[nH]c3c2)c(F)cn1 [Example 03.03, cyclobutyl{4-[(2-{[6-(5-fluoro-2-methoxypyridin-4-yl)-1H-benzimidazol-2-yl]amino}pyridin-4-yl)methyl]piperazin-1-yl}methanone]	279	–
CC(C)Oc1cnccc1-c1ccc2nc(Nc3cc(CN4CCN(C(=O)C5CC5)CC4)ccn3)[nH]c2c1 [Example 06.02, cyclopropyl(4-{[2-({6-[3-(propan-2-yloxy)pyridin-4-yl]-1H-benzimidazol-2-yl}amino)pyridin-4-yl]methyl}piperazin-1-yl)methanone]	7.12	–
CCOc1ncnc(-c2ccc3nc(Nc4cc(CN5CCN(C(=O)OC(C)(C)C)CC5)ccn4)[nH]c3c2)c1OC [Example 167.01, tert-butyl 4-[(2-{[6-(6-ethoxy-5-methoxypyrimidin-4-yl)-1H-benzimidazol-2-yl]amino}pyridin-4-yl)methyl]piperazine-1-carboxylate]	222	–
CC(c1ccnc(Nc2nc3ccc(-c4cnn(CC5CC5)c4)c(Cl)c3[nH]2)c1)N1CCN(C(=O)OC(C)(C)C)CC1 (single isomer, unassigned) [Example 122.01, tert-butyl 4-{(1R or 1S)-1-[2-({7-chloro-6-[1-(cyclopropylmethyl)-1H-pyrazol-4-yl]-1H-benzimidazol-2-yl}amino)pyridin-4-yl]ethyl}piperazine-1-carboxylate]	9.3	–
O=C(C1CCC1)N1CCN(Cc2ccnc(Nc3nc4ccc(-c5ccnc(OCC6CC6)n5)cc4[nH]3)c2)CC1 [Example 62.01.02, cyclobutyl(4-{[2-({6-[2-(cyclopropylmethoxy)pyrimidin-4-yl]-1H-benzimidazol-2-yl}amino)pyridin-4-yl]methyl}piperazin-1-yl)methanone]	9.54	–
CC(c1ccnc(Nc2nc3ccc(-c4cnn(CC5CC5(F)F)c4)cc3[nH]2)c1)N1CCN(C(=O)CC(F)(F)F)CC1 (single isomer, unassigned) [Example 55.02.02, 1-{4-[(1R or 1S)-1-(2-{[6-(1-{[(1R or IS)-2,2-difluorocyclopropyl]methyl}-1H-pyrazol-4-yl)-1H-benzimidazol-2-yl]amino}pyridin-4-yl)ethyl]piperazin-1-yl}-3,3,3-trifluoropropan-1-one]	1.3	–
Cc1cc(-c2ccc3nc(Nc4cc(CN5CCN(C(=O)C6CC6)CC5)ccn4)[nH]c3c2)nc(C)n1 [Example 31.02, cyclopropyl{4-[(2-{[6-(2,6-dimethylpyrimidin-4-yl)-1H-benzimidazol-2-yl]amino}pyridin-4-yl)methyl]piperazin-1-yl}methanone]	77	–
COc1cncnc1-c1ccc2nc(Nc3cc(C(C)N4CCN(C(=O)C5CC5)CC4)ccn3)[nH]c2c1 (racemic) [Example 35.02.03, (rac)-cyclopropyl{4-[1-(2-{[6-(5-methoxypyrimidin-4-yl)-1H-benzimidazol-2-yl]amino}pyridin-4-yl)ethyl]piperazin-1-yl}methanone]	6.29	–
CC(c1ccnc(Nc2nc3ccc(-c4cnn(CC5CC5(F)F)c4)c(F)c3[nH]2)c1)N1CCN(C(=O)OC(C)(C)C)CC1 (single isomer, unassigned) [Example 86.01, tert-butyl 4-[(1R or 1S)-1-(2-{[6-(1-{[(1RS)-2,2-difluorocyclopropyl]methyl}-1H-pyrazol-4-yl)-7-fluoro-1H-benzimidazol-2-yl]amino}pyridin-4-yl)ethyl]piperazine-1-carboxylate]	11	–
Cc1noc(-c2ccc3nc(Nc4cc(CN5CCN(C(=O)c6ccco6)CC5)ccn4)[nH]c3c2)n1 [Example 101.14, furan-2-yl{4-[(2-{[6-(3-methyl-1,2,4-oxadiazol-5-yl)-1H-benzimidazol-2-yl]amino}pyridin-4-yl)methyl]piperazin-1-yl}methanone]	430	–

Now from value to compound:

IC50 [1] [nM]	IC50 (TBK1 low ATP kinase assay IC50, in vitro assay 1) [nM]	Compound
990	–	CC(c1ccnc(Nc2nc3ccc(-c4cc(C(F)(F)F)nn4C)cc3[nH]2)c1)N1CCN(C(=O)C2CC2)CC1 (single isomer, unassigned) [Example 88.03, cyclopropyl(4-{(1R or 1S)-1-[2-({6-[1-methyl-3-(trifluoromethyl)-1H-pyrazol-5-yl]-1H-benzimidazol-2-yl}amino)pyridin-4-yl]ethyl}piperazin-1-yl)methanone]
0.558	–	CC(c1ccnc(Nc2nc3ccc(-c4cc(N5CC(C(F)(F)F)C5)ncn4)cc3[nH]2)c1)N1CCN(C(=O)C2CC2)CC1 (single isomer, unassigned) [Example 164.03, cyclopropyl{4-[(1R or 1S)-1-{2-[(6-{6-[3-(trifluoromethyl)azetidin-1-yl]pyrimidin-4-yl}-1H-benzimidazol-2-yl)amino]pyridin-4-yl}ethyl]piperazin-1-yl}methanone]
12.1	–	COc1cc(-c2ccc3nc(Nc4cc(C(C)N5CCN(C(=O)CC(F)(F)F)CC5)ccn4)[nH]c3c2)ncn1 (single isomer, unassigned) [Example 34.03.01.A, 3,3,3-trifluoro-1-{4-[(1R or 1S)-1-(2-{[6-(6-methoxypyrimidin-4-yl)-1H-benzimidazol-2-yl]amino}pyridin-4-yl)ethyl]piperazin-1-yl}propan-1-one]
–	33	Cc1noc(-c2ccc3nc(Nc4cc(C(C)N5CCN(C(=O)CC(F)(F)F)CC5)ccn4)[nH]c3c2)n1 (racemic) [Example 16.05.02, (rac)-3,3,3-trifluoro-1-{4-[1-(2-{[6-(3-methyl-1,2,4-oxadiazol-5-yl)-1H-benzimidazol-2-yl]amino}pyridin-4-yl)ethyl]piperazin-1-yl}propan-1-one]
0.566	–	CC(c1ccnc(Nc2nc3ccc(-c4cc(N5CC(C(F)(F)F)C5)ncn4)cc3[nH]2)c1)N1CCN(C(=O)[C@@H]2CC2(F)F)CC1 (single isomer, unassigned) [Example 164.05, ((1RS)-2,2-difluorocyclopropyl){4-[(1R or 1S)-1-[2-[(6-{6-[3-(trifluoromethyl)azetidin-1-yl]pyrimidin-4-yl}-1H-benzimidazol-2-yl)amino]pyridin-4-yl}ethyl]piperazin-1-yl}methanone]
54.2	–	CC(c1ccnc(Nc2nc3ccc(-c4cc(OCC(F)(F)C(F)(F)F)ncn4)cc3[nH]2)c1)N1CCN(C(=O)C2(C(F)(F)F)CC2)CC1 (single isomer, unassigned) [Example 166.04, (4-{(1R or 1S)-1[2-({6-[6-(2,2,3,3,3-pentafluoropropoxy)pyrimidin-4-yl]-1H-benzimidazol-2-yl}amino)pyridin-4-yl]ethyl}piperazin-1-yl)[1-(trifluoromethyl)cyclopropyl]methanone]
3.73	–	Cc1cc(-c2ccc3nc(Nc4cc(C(C)N5CCN(C(=O)C6CC6)CC5)ccn4)[nH]c3c2)ncn1 (racemic) [Example 30.02.03, (rac)-cyclopropyl{4-[1-(2-{[6-(6-methylpyrimidin-4-yl)-1H-benzimidazol-2-yl]amino}pyridin-4-yl)ethyl]piperazin-1-yl}methanone]
